Assay results reported in patent publication US4716159A, “Pyridazino[4,3-c]-isoquinolines having anti-anxiety activity” (Gruppo Lepetit, S.p.A., priority 1983, dated 1987).

How the values were obtained:
[1] = system: benzodiazepine receptor; test: benzodiazepine receptor test (displacement of 3H-diazepam from rat brain receptors); assay type: binding; details: for Inhibition % of the 3H diazepam binding: test compound at 3,6 μM; for Ki: 3H-diazepam, unit inferred
Procedure: The anti-anxiety activity of the compounds of the present invention was first detected by submitting some representative compounds to the benzodiazepine receptor test. […] Our experiments were carried out by following the method described by H. Moand T. Okada in Life Sciences, Vol. 20, 2101-2110 (1977).
of the test compound of 3,6 μM.

[2] = system: mice; test: antipentylenetetrazole assay in mice; assay type: in vivo; details: for prevention of tonic extensor seizures (pentylenetetrazole): pentylenetetrazole 140 mg/kg s.c., compound 30 min before
Procedure: The antipentylenetetrazole assay in mice have been carried out by essentially following the methodology described by Berger in J. Pharm. Exptl. Ther. 104, 468, (1952). A fatal dose of pentylenetetrazole (140 mg/kg, s.c.) was administered to groups of ten mice each, treated, 30 minutes before the administration of the convulsant agent, with a selected dose of the test compound.

[3] = system: rats; test: conflict test in rats (punished responding, Vogel method as modified by Lippa); assay type: in vivo, rat; details: i.p., 60 minutes after administration; for minimal effective dose: Rattus norvegicus, ip, 1 h, read-out: MED (minimal effective dose which significantly increased the number of shocks)
Procedure: The ability of the compounds of the present invention to increase punished responding in animals in a conflict situation, a procedure with high validity for predicting the anxiolytic effect of drugs, was assessed by testing these compounds in rats according to the method described by J. R. Vogel, B. Beer, D. E. Clody in Psycopharmacologia 21, 1-7, (1971) as modified by A. S. Lippa et al., in "Anxiolytics, Industrial Pharmacology",Vol. 3, Futura Publishing, 1979, pages 41-81.
Briefly, rats are deprived of water for 48 hours and deprived of food for 20 hours prior to testing. Sixty minutes after administration of the test compound each rat is placed in an specially equipped cage. A glucose solution is available from a tap located in the rear of the cage. A constant pulsating shocking current is connected between the grid floor and the tap. Each rat is allowed 20 seconds of non-shocked drinking, then cycles of 5 seconds shock-off and 5 seconds shock-on began. During the shock-on period each lick on the top is accompanied by shock. The number of shocks received by each animal is recorded and minimal effective doses are determined.

[4] = system: mice; test: anti-bicuculline test in mice; assay type: in vivo; details: for prevention of seizures (bicuculline): i.p. (highest dose tested), bicuculline 2 mg/kg s.c., compound 30 min before
Procedure: The experiments were conducted essentially following the methodology described by P. De La Mora et R. Tapia in Biochem. Pharmac. 22, 2635-2639 (1973). A dose of bicuculline (2 mg/kg, s.c.) was administered to groups of ten mice each which had been given a fixed dose of the text compound 30 minutes before treatment. […] The significance of this fact has not yet been completely clarified since it was first described only recently for two quinoline derivatives (see G. Le Fur et al., Life Sci., 28, 1439-1448 (1981)). […] The favourable pharmacological properties of the compounds of the present invention are accompanied by a generally low toxicity, as in fact the acute toxicity of the compounds of the present invention is in general from 200 to more than 600 mg/kg, i.p. In view of the above, the use of the compounds of the present invention as anticonvulsant and antianxiety agents is a further specific object of the present invention. With the term "use" it is intended to refer to all industrially applicable aspects and acts of said use, including the embodiment of the novel compounds into pharmaceutical compositions.

[5] = 100 mg/kg (highest dose tested)

Compound | Inhibition % of the 3H diazepam binding [1] | prevention of tonic extensor seizures (pentylenetetrazole) ([2]; 50 mg/kg (highest dose tested)) | minimal effective dose [3] | prevention of seizures (bicuculline) ([4]; 100 mg/kg) | Ki [1] | other results
CCOC(=O)C1CCN(c2nc3cc(-c4ccc(OC)cc4)nnc3c3ccccc23)CC1 [Example 21] | -39% |  |  |  |  | 
COc1ccc(-c2cc3nc(N4CCOCC4)c4ccccc4c3nn2)cc1 [Example 20, 3-(4-Methoxyphenyl)-6-(4-morpholinyl)-pyridazino[4,3-c]isoquinoline] | -76% | uneffective | 30 mg/kg | failed to prevent seizures |  | 
COc1ccc(-c2cc3nc(N4CCC4)c4ccccc4c3nn2)cc1 [Example 17, 6-(1-Azetidinyl)-3-(4-methoxyphenyl)pyridazino[4,3-c]isoquinoline] |  | uneffective | 30 mg/kg | failed to prevent seizures | 130 nM | 
CCOc1nc2cc(-c3ccccc3)nnc2c2ccccc12 [Example 9, 6-Ethoxy-3-phenyl-pyridazino [4,3-c]isoquinoline] |  |  |  |  | 1480 nM | 
c1ccc(-c2cc3nc(N4CCCC4)c4ccccc4c3nn2)cc1 [Example 5, 3-phenyl-6-(1-pyrrolidinyl)pyridazino-[4,3-c]isoquinoline] |  |  | 5 mg/kg |  | 11.4 nM | prevention of tonic extensor seizures (pentylenetetrazole) [2, 5]: failed to prevent tonic extensor seizures; prevention of seizures (bicuculline) ([4]; 50 mg/kg): uneffective
Clc1ccc(-c2cc3nc(N4CCCC4)c4ccccc4c3nn2)cc1 [Example 27, 3-(4-Chlorophenyl)-6-(l-pyrrolidinyl)pyridazino[4,3-c]isoquinoline] | -63% |  |  |  |  | 
CCN(C)c1nc2cc(-c3ccccc3)nnc2c2ccccc12 [Example 3, N-ethyl-3-phenyl-N-methylpyridazino-[4,3-c]-isoquinolin-6-amine] |  |  | 10 mg/kg |  | 65.2 nM | prevention of tonic extensor seizures (pentylenetetrazole) [2, 5]: failed to prevent tonic extensor seizures; prevention of seizures (bicuculline) ([4]; 50 mg/kg): uneffective
COCCOc1nc2cc(-c3ccc(OC)cc3)nnc2c2ccccc12 [Example 24, 6-(2-Methoxyethoxy)-3-(4-methoxyphenyl)pyridazino[4,3-c]isoquinoline] | -47% |  |  |  |  | 
COc1ccc(-c2cc3nc(N(C)C)c4ccccc4c3nn2)cc1 [Example 13, N,N-dimethyl-3-(4-methoxyphenyl)pyridazino[4,3-c]isoquinolin-6-amine] |  | uneffective | 10 mg/kg | failed to prevent seizures | 63.3 nM | 
CCOC(=O)N1CCN(c2nc3cc(-c4ccc(OC)cc4)nnc3c3ccccc23)CC1 [Example 22] | -61% |  |  |  |  | 
CN(C)c1nc2cc(-c3ccccc3)nnc2c2ccccc12 [Example 2, 3-Phenyl-N,N-dimethyl-pyridazino-[4,3-c]-isoquinolin-6-amine] |  | uneffective | 10 mg/kg | failed to prevent seizures | 28.4 nM | 
COc1ccc(-c2cc3nc(N(C)CC(C)O)c4ccccc4c3nn2)cc1 (centres unmarked) [Example 14] |  | uneffective | 30 mg/kg | failed to prevent seizures | 221 nM | 
Clc1nc2cc(-c3ccccc3)nnc2c2ccccc12 [Example 1, 6-Chloro-3-phenyl-pyridazino-[4,3-c]-isoquinoline] | -36% |  |  |  |  | 
c1ccc(-c2cc3nc(N4CCOCC4)c4ccccc4c3nn2)cc1 [Example 6, 3-Phenyl-6-(4-morpholinyl)pyridazino[4,3-c]-isoquinoline] |  |  | 15 mg/kg |  | 152 nM | prevention of tonic extensor seizures (pentylenetetrazole) [2, 5]: failed to prevent tonic extensor seizures; prevention of seizures (bicuculline) ([4]; 50 mg/kg): uneffective
3-Methyl-pyridazino[4,3-c]isoquinoline [Example 32] |  | uneffective |  | failed to prevent seizures | 245 nM | MED (minimal effective dose which significantly increased the number of shocks) [3]: 20 Mg/Kg
COc1ccc(-c2cc3nc(N4CCCC4)c4ccccc4c3nn2)cc1 [Example 18] |  | uneffective | 20 mg/kg | failed to prevent seizures | 18.7 nM | 
COCCN(CCOC)c1nc2cc(-c3ccc(OC)cc3)nnc2c2ccccc12 [Example 15, N,N-bis(2-methoxyethyl)-3-(4-methoxyphenyl)pyridazino[4,3-c]isoquinolin-6-amine] |  | uneffective | 10 mg/kg | failed to prevent seizures | 1180 nM | 
CN1C(=O)CN=C(c2ccccc2)c2cc(Cl)ccc21 [Diazepam, reference compound] |  |  |  |  |  | ED50 ([2]; Mus musculus, ip, 0.5 h, i.p., same experiment, read-out: ED50 (dose which prevents tonic extension seizures in 50% of the treated animals), pentylenetetrazole): 0.2 mg/kg; ED50 ([4]; Mus musculus, ip, 0.5 h, i.p., same experiment, read-out: ED50 (dose which prevents tonic extensor seizures in 50% of the treated animals), bicuculline): 0.18 mg/kg
CC(C)Oc1nc2cc(-c3ccccc3)nnc2c2ccccc12 [Example 10] |  |  |  |  | 1900 nM | 
COc1ccc(-c2cc3nc(N4CCCCC4)c4ccccc4c3nn2)cc1 [Example 19, 3-(4-Methoxyphenyl)-6-(1-piperidinyl)-pyridazino[4,3-c]isoquinoline] | -70% | uneffective | 10 mg/kg | failed to prevent seizures |  | 
CCOC(=O)CCCN(C)c1nc2cc(-c3ccc(OC)cc3)nnc2c2ccccc12 [Example 16] | -69% |  |  |  |  | 
CC(O)CN(C)c1nc2cc(-c3ccccc3)nnc2c2ccccc12 (centres unmarked) [Example 4, 1-[(3-Phenyl-pyridazino[4,3-c]isoquinolin-6-yl)methylamino]-2-propanol] |  |  | 30 mg/kg |  | 136 nM | prevention of tonic extensor seizures (pentylenetetrazole) [2, 5]: failed to prevent tonic extensor seizures; prevention of seizures (bicuculline) ([4]; 50 mg/kg): uneffective
